This note sets out measurements from article PMC11784200, “Insights into antibiotic resistance promoted by quinolone exposure” (Antimicrobial Agents and Chemotherapy, 2024).

≈ marks a conversion by molar mass, not a printed value. Read-outs that look alike come from different tables or passages of the source.

In experiment [1] the test system is E. coli colonies that became resistant to CHL after CIP treatment. Type of experiment: cell-based.
In a further experiment the test system is E. coli marR mutant. As to the kind of experiment: CHL MIC of marR mutant. Type of experiment: cell-based. The conditions noted are these: partial deletion of marR in WT E. coli. The method, then:
(§1) Minimum inhibitory concentration (MIC) values were determined in triplicate as described ([55]). […] All compounds were purchased from Sigma.

A further experiment has as its system E. coli MLS83L. As to the kind of experiment: Broth-based MIC, MLS83L. Type of experiment: cell-based. The settings on record: Escherichia coli. The method, then: as §1
The test system of a further experiment is MG1655 ∆recA. As to the kind of experiment: Broth-based MIC, ∆recA. The conditions noted are these: Escherichia coli. Type of experiment: cell-based, E. coli. As to the method: as §1
A further experiment relates to MG1655 lexA(S119A). As to the kind of experiment: Broth-based MIC, lexA(S119A). Type of experiment: cell-based, E. coli. The conditions noted are these: Escherichia coli. The method, then:
as §1

A further experiment concerns MG1655 ∆dinB. As to the kind of experiment: Broth-based MIC, ∆dinB. Type of experiment: cell-based, E. coli. The settings on record: Escherichia coli. The method, then: as §1
In another experiment the test system is MG1655 ∆polB. As to the kind of experiment: Broth-based MIC, ∆polB. Type of experiment: cell-based, E. coli. The conditions noted are these: Escherichia coli. As to the method:
as §1

For the next experiment, the system named is MG1655 ∆umuD. As to the kind of experiment: Broth-based MIC, ∆umuD. Format: cell-based, E. coli. The settings on record: Escherichia coli. As to the method:
as §1

Another experiment has as its system MG1655 ΔdinB ΔpolB ΔumuD. As to the kind of experiment: Broth-based MIC, ΔdinB ΔpolB ΔumuD. Type of experiment: cell-based, E. coli. The settings on record: Escherichia coli. The method, then:
as §1

Setting [2] is: colony 1, plates with 2× MIC after 24 h on LB without selection.
[3] abbreviates: colony 2, plates with 2× MIC after 24 h on LB without selection.
Setting [4] is: colony 3, plates with 2× MIC after 24 h on LB without selection.
Where [5] appears, read: colony 4, plates with 2× MIC after 24 h on LB without selection.
Setting [6] is: colony 5, plates with 2× MIC after 24 h on LB without selection.
Setting [7] is: colony 6, plates with 2× MIC after 24 h on LB without selection.
The mark [8] stands for this setting: colony 7, plates with 2× MIC after 24 h on LB without selection.
[9] abbreviates: colony 8, plates with 2× MIC after 24 h on LB without selection.
The mark [10] stands for this setting: colony 9, plates with 2× MIC after 24 h on LB without selection.
Where [11] appears, read: colony 10, plates with 2× MIC after 24 h on LB without selection.
Where [12] appears, read: colony 11, plates with 2× MIC after 24 h on LB without selection.
The mark [13] stands for this setting: colony 12, plates with 2× MIC after 24 h on LB without selection.
Setting [14] is: colony 13, plates with 2× MIC after 24 h on LB without selection.
Setting [15] is: colony 14, plates with 2× MIC after 24 h on LB without selection.
Setting [16] is: colony 15, plates with 2× MIC after 24 h on LB without selection.
Setting [17] is: colony 16, plates with 2× MIC after 24 h on LB without selection.
Setting [18] is: colony 17 (first line so numbered, r20), plates with 2× MIC after 24 h on LB without selection.
The mark [19] stands for this setting: colony 17 (second line so numbered, r21), plates with 2× MIC after 24 h on LB without selection.
[20] abbreviates: colony 19, plates with 2× MIC after 24 h on LB without selection.
[21] abbreviates: colony 20, plates with 2× MIC after 24 h on LB without selection.
Setting [22] is: colony 21, plates with 2× MIC after 24 h on LB without selection.
Setting [23] is: colony 22, plates with 2× MIC after 24 h on LB without selection.
Where [24] appears, read: colony 23, plates with 2× MIC after 24 h on LB without selection.
[25] abbreviates: colony 24, plates with 2× MIC after 24 h on LB without selection.
Setting [26] is: colony 25, plates with 2× MIC after 24 h on LB without selection.
[27] abbreviates: colony 26, plates with 2× MIC after 24 h on LB without selection.
[28] abbreviates: colony 27, plates with 2× MIC after 24 h on LB without selection.

On to `[H]/N=C(/N)N[C@H]1[C@H](O)[C@@H](O)[C@H](O[C@@H]2O[C@@H](C)[C@](O)(C=O)[C@H]2O[C@@H]2O[C@@H](CO)[C@H](O)[C@@H](O)[C@@H]2NC)[C@@H](N/C(N)=N\[H])[C@@H]1O` [STR, streptomycin], for which the Antibiotic resistance entry is “No” in [1] (setting [2]); “No” in experiment [1] (setting [3]); “No” in experiment [1] (setting [4]); “Yes” in [1] (setting [5]); “No” in [1] (setting [6]); “No” in [1] (setting [7]). The Antibiotic resistance entry in experiment [1] (setting [8]), in experiment [1] (setting [9]), in experiment [1] (setting [10]), in [1] (setting [11]), in experiment [1] (setting [12]) and in experiment [1] (setting [13]) was “No” throughout. The Antibiotic resistance entry in experiment [1] (setting [14]), in experiment [1] (setting [15]), in experiment [1] (setting [16]), in [1] (setting [17]), in experiment [1] (setting [18]) and in [1] (setting [19]) was “No” each time. In addition, the Antibiotic resistance result in experiment [1] (setting [20]), in experiment [1] (setting [21]), in [1] (setting [22]), in experiment [1] (setting [23]), in experiment [1] (setting [24]) and in experiment [1] (setting [25]) was “No” each time. The Antibiotic resistance entry in [1] (setting [26]), in experiment [1] (setting [27]) and in experiment [1] (setting [28]) was “No” each time.
Regarding `NC[C@H]1O[C@H](O[C@H]2[C@H](O)[C@@H](O[C@H]3O[C@H](CO)[C@@H](O)[C@H](N)[C@H]3O)[C@H](N)C[C@@H]2N)[C@H](O)[C@@H](O)[C@@H]1O` [KAN, kanamycin], in experiment [1], the Antibiotic resistance entry is “No”.
Same read-out and setting: as for `CN(C)[C@@H]1C(O)=C(C(N)=O)C(=O)[C@@]2(O)C(O)=C3C(=O)c4c(O)cccc4[C@@](C)(O)[C@H]3C[C@@H]12` [TET, tetracycline], the entry is “No and Yes”.
As for `O=C(N[C@H](CO)[C@H](O)c1ccc([N+](=O)[O-])cc1)C(Cl)Cl` [CHL, chloramphenicol], the Antibiotic resistance entry is reported as “No” in experiment [1] (setting [2]); “No” in experiment [1] (setting [3]); “Yes” in [1] (setting [4]); “Yes” in [1] (setting [5]); “Yes” in [1] (setting [6]); “Yes” in experiment [1] (setting [7]). Also, the Antibiotic resistance result in experiment [1] (setting [8]), in [1] (setting [9]), in experiment [1] (setting [10]), in experiment [1] (setting [11]), in [1] (setting [12]) and in [1] (setting [13]) was “Yes” in each case. Moreover, the Antibiotic resistance entry in experiment [1] (setting [14]), in [1] (setting [15]), in experiment [1] (setting [16]), in [1] (setting [17]), in experiment [1] (setting [18]) and in experiment [1] (setting [19]) was “Yes” in each case. In addition, the Antibiotic resistance result in experiment [1] (setting [20]), in [1] (setting [21]), in experiment [1] (setting [22]), in experiment [1] (setting [23]), in experiment [1] (setting [24]) and in [1] (setting [25]) was “Yes” each time. Further, the Antibiotic resistance result in experiment [1] (setting [26]), in experiment [1] (setting [27]) and in experiment [1] (setting [28]) was “Yes” each time. Besides, in experiment [1] (of 27 CHL-resistant colonies from CIP treatment, cultured without selection), the “Colonies that retained resistance” value is on record as 25. Moreover, the “Increase in the MIC compared to the WT strain” value with E. coli marR mutant is “eightfold”.
For `COc1cc(Cc2cnc(N)nc2N)cc(OC)c1OC` [TMP, trimethoprim], the Antibiotic resistance result in experiment [1] was “No and Yes”.
In general, MIC refers to the smallest concentration in the dilution series that meets the test's criterion for growth inhibition. A low value points to a more susceptible organism. Take `O=C(O)c1cn(C2CC2)c2cc(N3CCNCC3)c(F)cc2c1=O` [CIP, ciprofloxacin]: the MIC is 0.256 µg/mL (≈ 0.773 µM) in the experiment with E. coli MLS83L; 0.006 µg/mL (≈ 0.0181 µM) against MG1655 ∆recA; 0.008 µg/mL (≈ 0.0241 µM) against MG1655 lexA(S119A); 0.032 µg/mL (≈ 0.0966 µM) against MG1655 ∆dinB; 0.032 µg/mL (≈ 0.0966 µM) against MG1655 ∆polB; 0.021 µg/mL (≈ 0.0634 µM) against MG1655 ∆umuD. In the experiment with MG1655 ΔdinB ΔpolB ΔumuD, this compound registered an MIC of 0.032 µg/mL (≈ 0.0966 µM).
Turning to `CO[C@H]1/C=C/O[C@@]2(C)Oc3c(C)c(O)c4c(O)c(c(/C=N/N5CCN(C)CC5)c(O)c4c3C2=O)NC(=O)/C(C)=C\C=C\[C@H](C)[C@H](O)[C@@H](C)[C@@H](O)[C@@H](C)[C@H](OC(C)=O)[C@@H]1C` [RIF, rifampin], the Antibiotic resistance entry in experiment [1] is “No”.
On to `Oc1cc(Cl)ccc1Oc1ccc(Cl)cc1Cl` [TRI, triclosan], for which the Antibiotic resistance result in experiment [1] (setting [2]) was “No”; in [1] (setting [3]), “No”; in [1] (setting [4]), “Yes”; in experiment [1] (setting [5]) it was “No”; in [1] (setting [6]), “No”; in experiment [1] (setting [7]), “No”. For the same compound, the Antibiotic resistance entry is listed as “Yes” in experiment [1] (setting [8]); “Yes” in experiment [1] (setting [9]); “No” in experiment [1] (setting [10]); “Yes” in experiment [1] (setting [11]); “No” in experiment [1] (setting [12]); “No” in experiment [1] (setting [13]). The Antibiotic resistance entry in experiment [1] (setting [14]), in experiment [1] (setting [15]), in experiment [1] (setting [16]), in experiment [1] (setting [17]), in experiment [1] (setting [18]) and in experiment [1] (setting [19]) was “No” each time. Besides, the Antibiotic resistance entry in experiment [1] (setting [20]), in experiment [1] (setting [21]), in [1] (setting [22]), in [1] (setting [23]), in [1] (setting [24]) and in [1] (setting [25]) was “No” throughout. The Antibiotic resistance result in experiment [1] (setting [26]), in [1] (setting [27]) and in [1] (setting [28]) was “No” in each case.
On to `CC1(C)S[C@@H]2[C@H](NC(=O)[C@H](N)c3ccccc3)C(=O)N2[C@H]1C(=O)O` [AMP, ampicillin], for which the Antibiotic resistance result in [1] (setting [2]) is “No”; in experiment [1] (setting [3]), “No”; in [1] (setting [4]), “No”; in experiment [1] (setting [5]) it was “No”; in experiment [1] (setting [6]) it was “No”; in experiment [1] (setting [7]), “Yes”. The Antibiotic resistance entry in [1] (setting [8]), in experiment [1] (setting [9]), in experiment [1] (setting [10]), in experiment [1] (setting [11]), in experiment [1] (setting [12]) and in [1] (setting [13]) was “No” each time. Besides, the Antibiotic resistance result in [1] (setting [14]), in experiment [1] (setting [15]), in [1] (setting [16]), in experiment [1] (setting [17]), in experiment [1] (setting [18]) and in experiment [1] (setting [19]) was “No” each time. The Antibiotic resistance entry in [1] (setting [20]), in [1] (setting [21]), in [1] (setting [22]), in experiment [1] (setting [23]), in experiment [1] (setting [24]) and in experiment [1] (setting [25]) was “No” in each case. For the same compound, the Antibiotic resistance entry in experiment [1] (setting [26]), in experiment [1] (setting [27]) and in experiment [1] (setting [28]) was “No” throughout.
